{"source": "the supplement of paper PMC9663587", "key": {"senexin b": {"compound": "CN1CCN(C(=O)c2ccc3cc(CCNc4ncnc5ccc(C#N)cc45)ccc3c2)CC1 [senexin b]"}, "BSJ-01-175": {"compound": "CN(C)C/C=C/C(=O)Nc1ccc(O[C@@H]2CCC[C@@H](Nc3ncc(Cl)c(-c4c[nH]c5ccccc45)n3)C2)cc1 [BSJ-01-175]"}, "Ceritinib/LDK378": {"compound": "Cc1cc(Nc2ncc(Cl)c(Nc3ccccc3S(=O)(=O)C(C)C)n2)c(OC(C)C)cc1C1CCNCC1 [Ceritinib/LDK378]"}, "Rucaparib": {"compound": "CNCc1ccc(-c2[nH]c3cc(F)cc4c3c2CCNC4=O)cc1 [Rucaparib]"}, "Tivantinib/ARQ197": {"compound": "O=C1NC(=O)[C@@H](c2cn3c4c(cccc24)CCC3)[C@@H]1c1c[nH]c2ccccc12 [Tivantinib/ARQ197]"}, "Paclitaxel": {"compound": "CC(=O)O[C@H]1C(=O)[C@@]2(C)[C@H]([C@H](OC(=O)c3ccccc3)[C@]3(O)C[C@H](OC(=O)[C@H](O)[C@@H](NC(=O)c4ccccc4)c4ccccc4)C(C)=C1C3(C)C)[C@]1(OC(C)=O)CO[C@@H]1C[C@@H]2O [Paclitaxel]"}, "AZD6738": {"compound": "C[C@@H]1COCCN1c1cc(C2([S@](C)(=N)=O)CC2)nc(-c2cc[nH]c3nccc2-3)n1 [AZD6738]"}, "THZ531 [1]": {"compound": "T1, CN(C)C/C=C/C(=O)Nc1ccc(C(=O)N2CCC[C@@H](Nc3ncc(Cl)c(-c4c[nH]c5ccccc45)n3)C2)cc1 [THZ531]"}, "Cediranib/AZD2171": {"compound": "COc1cc2c(Oc3ccc4[nH]c(C)cc4c3F)ncnc2cc1OCCCN1CCCC1 [Cediranib/AZD2171]"}, "Pictilisib/GDC0941": {"compound": "CS(=O)(=O)N1CCN(Cc2cc3nc(-c4cccc5[nH]ncc45)nc(N4CCOCC4)c3s2)CC1 [Pictilisib/GDC0941]"}, "BSJ-03-123": {"compound": "CC(=O)c1c(C)c2cnc(Nc3ccc(N4CCN(CCOCCOCCOCCNC(=O)COc5cccc6c5C(=O)N(C5CCC(=O)NC5=O)C6=O)CC4)cn3)nc2n(C2CCCC2)c1=O [BSJ-03-123]", "assay": "GR value, 72 h; higher = faster growth (1 = untreated, <0 = killing);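 further: breast cancer and non-malignant breast epithelial lines, nine half-log doses, viable cells counted by Hoechst and LIVE/DEAD dye imaging versus time-zero plates and DMSO controls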"}, "[2]": {"compound": "CCc1cnn2c(NCc3ccc[n+]([O-])c3)cc(N3CCCC[C@H]3CCO)nc12", "assay": "GR value, 72 h; higher = faster growth (1 = untreated, <0 = killing)"}, "[3]": {"compound": "CCN1CCN(Cc2ccc(Nc3ncc(F)c(-c4cc(F)c5nc(C)n(C(C)C)c5c4)n3)nc2)CC1", "assay": "GR value, 72 h; higher = faster growth (1 = untreated, <0 = killing)"}, "YKL-5-124": {"compound": "C=CC(=O)Nc1ccc(C(=O)Nc2[nH]nc3c2CN(C(=O)N[C@H](CN(C)C)c2ccccc2)C3(C)C)cc1 [YKL-5-124]", "assay": "GR value, 72 h; higher = faster growth (1 = untreated, <0 = killing)"}, "LEE011/Ribociclib": {"compound": "CN(C)C(=O)c1cc2cnc(Nc3ccc(N4CCNCC4)cn3)nc2n1C1CCCC1 [LEE011/Ribociclib]", "assay": "GR value, 72 h; higher = faster growth (1 = untreated, <0 = killing)"}, "[4]": {"compound": "CC(=O)c1c(C)c2cnc(Nc3ccc(N4CCNCC4)cn3)nc2n(C2CCCC2)c1=O", "assay": "GR value, 72 h; higher = faster growth (1 = untreated, <0 = killing)"}, "THZ1": {"compound": "CN(C)C/C=C/C(=O)Nc1ccc(C(=O)Nc2cccc(Nc3ncc(Cl)c(-c4c[nH]c5ccccc45)n3)c2)cc1 [THZ1]", "assay": "GR value, 72 h; higher = faster growth (1 = untreated, <0 = killing)"}, "THZ531 [5]": {"compound": "T1, THZ531", "assay": "GR value, 72 h; higher = faster growth (1 = untreated, <0 = killing)"}}, "data": [{"cell line": "T47D", "values": [{"measurement": "GR50, 72 h", "setting": "senexin b", "value": 1.28, "unit": "µM"}, {"measurement": "GR50, 72 h", "setting": "BSJ-01-175", "value": 0.189, "unit": "µM"}, {"measurement": "GR50, 72 h", "setting": "Ceritinib/LDK378", "value": 1.56, "unit": "µM"}, {"measurement": "GR50, 72 h", "setting": "Rucaparib", "value": "> 10", "unit": "µM"}, {"measurement": "GR50, 72 h", "setting": "Tivantinib/ARQ197", "value": 0.346, "unit": "µM"}, {"measurement": "GR50, 72 h", "setting": "Paclitaxel", "value": 0.00353, "unit": "µM"}, {"measurement": "GR50, 72 h", "setting": "AZD6738", "value": "> 10", "unit": "µM"}, {"measurement": "GR50, 72 h", "setting": "THZ531 [1]", "value": 0.114, "unit": "µM"}, {"measurement": "GR50, 72 h", "setting": "Cediranib/AZD2171", "value": 4.1, "unit": "µM"}, {"measurement": "GR50, 72 h", "setting": "Pictilisib/GDC0941", "value": 0.155, "unit": "µM"}, {"measurement": "GR value", "setting": "BSJ-03-123; 0.001 µM", "value": 0.505, "unit": "GR"}, {"measurement": "GR value", "setting": "BSJ-03-123; 0.003162 µM", "value": 0.473, "unit": "GR"}, {"measurement": "GR value", "setting": "BSJ-03-123; 0.01 µM", "value": 0.28, "unit": "GR"}, {"measurement": "GR value", "setting": "BSJ-03-123; 0.03162 µM", "value": 0.231, "unit": "GR"}, {"measurement": "GR value", "setting": "BSJ-03-123; 0.1 µM", "value": 0.228, "unit": "GR"}, {"measurement": "GR value", "setting": "BSJ-03-123; 0.3162 µM", "value": 0.203, "unit": "GR"}, {"measurement": "GR value", "setting": "BSJ-03-123; 1 µM", "value": 0.115, "unit": "GR"}, {"measurement": "GR value", "setting": "BSJ-03-123; 3.162 µM", "value": 0.165, "unit": "GR"}, {"measurement": "GR value", "setting": "BSJ-03-123; 10 µM", "value": 0.118, "unit": "GR"}, {"measurement": "GR value", "setting": "[2]; 0.0001 µM", "value": 0.999, "unit": "GR"}, {"measurement": "GR value", "setting": "[2]; 0.0003162 µM", "value": 1.01, "unit": "GR"}, {"measurement": "GR value", "setting": "[2]; 0.001 µM", "value": 1.08, "unit": "GR"}, {"measurement": "GR value", "setting": "[2]; 0.003162 µM", "value": 1.12, "unit": "GR"}, {"measurement": "GR value", "setting": "[2]; 0.01 µM", "value": 1.05, "unit": "GR"}, {"measurement": "GR value", "setting": "[2]; 0.03162 µM", "value": -0.0667, "unit": "GR"}, {"measurement": "GR value", "setting": "[2]; 0.1 µM", "value": -0.128, "unit": "GR"}, {"measurement": "GR value", "setting": "[2]; 0.3162 µM", "value": -0.19, "unit": "GR"}, {"measurement": "GR value", "setting": "[2]; 1 µM", "value": -0.22, "unit": "GR"}, {"measurement": "GR value", "setting": "[3]; 0.001 µM", "value": 0.86, "unit": "GR"}, {"measurement": "GR value", "setting": "[3]; 0.003162 µM", "value": 0.604, "unit": "GR"}, {"measurement": "GR value", "setting": "[3]; 0.01 µM", "value": 0.244, "unit": "GR"}, {"measurement": "GR value", "setting": "[3]; 0.03162 µM", "value": 0.0789, "unit": "GR"}, {"measurement": "GR value", "setting": "[3]; 0.1 µM", "value": 0.166, "unit": "GR"}, {"measurement": "GR value", "setting": "[3]; 0.3162 µM", "value": 0.117, "unit": "GR"}, {"measurement": "GR value", "setting": "[3]; 1 µM", "value": 0.171, "unit": "GR"}, {"measurement": "GR value", "setting": "[3]; 3.162 µM", "value": 0.0597, "unit": "GR"}, {"measurement": "GR value", "setting": "[3]; 10 µM", "value": -0.03, "unit": "GR"}, {"measurement": "GR value", "setting": "YKL-5-124; 0.001 µM", "value": 0.51, "unit": "GR"}, {"measurement": "GR value", "setting": "YKL-5-124; 0.003162 µM", "value": 0.332, "unit": "GR"}, {"measurement": "GR value", "setting": "YKL-5-124; 0.01 µM", "value": 0.172, "unit": "GR"}, {"measurement": "GR value", "setting": "YKL-5-124; 0.03162 µM", "value": 0.143, "unit": "GR"}, {"measurement": "GR value", "setting": "YKL-5-124; 0.1 µM", "value": 0.0629, "unit": "GR"}, {"measurement": "GR value", "setting": "YKL-5-124; 0.3162 µM", "value": 0.0978, "unit": "GR"}, {"measurement": "GR value", "setting": "YKL-5-124; 1 µM", "value": 0.082, "unit": "GR"}, {"measurement": "GR value", "setting": "YKL-5-124; 3.162 µM", "value": 0.0131, "unit": "GR"}, {"measurement": "GR value", "setting": "YKL-5-124; 10 µM", "value": -0.175, "unit": "GR"}, {"measurement": "GR value", "setting": "LEE011/Ribociclib; 0.001 µM", "value": 0.614, "unit": "GR"}, {"measurement": "GR value", "setting": "LEE011/Ribociclib; 0.003162 µM", "value": 0.624, "unit": "GR"}, {"measurement": "GR value", "setting": "LEE011/Ribociclib; 0.01 µM", "value": 0.407, "unit": "GR"}, {"measurement": "GR value", "setting": "LEE011/Ribociclib; 0.03162 µM", "value": 0.413, "unit": "GR"}, {"measurement": "GR value", "setting": "LEE011/Ribociclib; 0.1 µM", "value": 0.297, "unit": "GR"}, {"measurement": "GR value", "setting": "LEE011/Ribociclib; 0.3162 µM", "value": 0.244, "unit": "GR"}, {"measurement": "GR value", "setting": "LEE011/Ribociclib; 1 µM", "value": 0.174, "unit": "GR"}, {"measurement": "GR value", "setting": "LEE011/Ribociclib; 3.162 µM", "value": 0.151, "unit": "GR"}, {"measurement": "GR value", "setting": "LEE011/Ribociclib; 10 µM", "value": 0.163, "unit": "GR"}, {"measurement": "GR value", "setting": "[4]; 0.0003162 µM", "value": 1.07, "unit": "GR"}, {"measurement": "GR value", "setting": "[4]; 0.001 µM", "value": 1.08, "unit": "GR"}, {"measurement": "GR value", "setting": "[4]; 0.003162 µM", "value": 1.04, "unit": "GR"}, {"measurement": "GR value", "setting": "[4]; 0.01 µM", "value": 0.782, "unit": "GR"}, {"measurement": "GR value", "setting": "[4]; 0.03162 µM", "value": 0.478, "unit": "GR"}, {"measurement": "GR value", "setting": "[4]; 0.1 µM", "value": 0.203, "unit": "GR"}, {"measurement": "GR value", "setting": "[4]; 0.3162 µM", "value": 0.177, "unit": "GR"}, {"measurement": "GR value", "setting": "[4]; 1 µM", "value": 0.122, "unit": "GR"}, {"measurement": "GR value", "setting": "[4]; 3.162 µM", "value": 0.132, "unit": "GR"}, {"measurement": "GR value", "setting": "THZ1; 0.0001 µM", "value": 0.967, "unit": "GR"}, {"measurement": "GR value", "setting": "THZ1; 0.0003162 µM", "value": 1.08, "unit": "GR"}, {"measurement": "GR value", "setting": "THZ1; 0.001 µM", "value": 0.922, "unit": "GR"}, {"measurement": "GR value", "setting": "THZ1; 0.003162 µM", "value": 1.02, "unit": "GR"}, {"measurement": "GR value", "setting": "THZ1; 0.01 µM", "value": 0.841, "unit": "GR"}, {"measurement": "GR value", "setting": "THZ1; 0.03162 µM", "value": 0.474, "unit": "GR"}, {"measurement": "GR value", "setting": "THZ1; 0.1 µM", "value": -0.116, "unit": "GR"}, {"measurement": "GR value", "setting": "THZ1; 0.3162 µM", "value": -0.142, "unit": "GR"}, {"measurement": "GR value", "setting": "THZ1; 1 µM", "value": -0.269, "unit": "GR"}, {"measurement": "GR value", "setting": "THZ531 [5]; 0.0001 µM", "value": 1.06, "unit": "GR"}, {"measurement": "GR value", "setting": "THZ531 [5]; 0.0003162 µM", "value": 0.984, "unit": "GR"}, {"measurement": "GR value", "setting": "THZ531 [5]; 0.001 µM", "value": 1.04, "unit": "GR"}, {"measurement": "GR value", "setting": "THZ531 [5]; 0.003162 µM", "value": 0.925, "unit": "GR"}, {"measurement": "GR value", "setting": "THZ531 [5]; 0.01 µM", "value": 1.15, "unit": "GR"}, {"measurement": "GR value", "setting": "THZ531 [5]; 0.03162 µM", "value": 1.06, "unit": "GR"}, {"measurement": "GR value", "setting": "THZ531 [5]; 0.1 µM", "value": 0.675, "unit": "GR"}, {"measurement": "GR value", "setting": "THZ531 [5]; 0.3162 µM", "value": -0.121, "unit": "GR"}, {"measurement": "GR value", "setting": "THZ531 [5]; 1 µM", "value": -0.102, "unit": "GR"}]}]}
